Experimental data from US20240300976A1, “COMPOUNDS AS MODULATORS OF ENDOPLASMIC RETICULUM AMINOPEPTIDASE 1 (ERAP1)” (GREY WOLF THERAPEUTICS LIMITED, priority 2020, published 2024).
pIC50: −log10 of the molar value.

Target: T1, ERAP1 (Homo sapiens, UniProt Q9NZ08)
T1 construct: Purified ERAP1(37-941)-10His (ERAP1); 10His (C)
Experiment: ERAP1 mediated hydrolysis of an amide substrate (10-mer inhibition assay), biochemical system
Conditions: 10-mer substrate, incubated at 23° C. for 1 h, excitation 279 nm and emission 355 nm; read-out: IC50 vs Decapeptide WRVYEKC(Dnp)ALK-acid (where Dnp is Dinitrophenyl maleimide) (10-mer)
Excerpt: This peptide has minimal fluorescence as the N-terminal tryptophan residue's fluorescence is quenched by the dinitrophenol (DNP) residue within the peptide. However, as ERAP1 hydrolyses the N-terminal amide bond and tryptophan is released this internal quenching is lost and the reaction is monitored by the increase in tryptophan fluorescence over the course of the assay. For the purposes of this application this assay is referred to as the “1 Omer inhibition assay” and compound potencies are calculated and expressed as 1050 as would be familiar to a person skilled in the art.
Biological Assay 1: ERAP1 Mediated Hydrolysis of an Amide Substrate Measured in a Biochemical System
• 1× Assay buffer (AB): 25 mM Bis-tris propane, 0.05% w/v Hydroxypropylmethylcellulose pH 7.75 made with Optima grade water • Decapeptide WRVYEKC(Dnp)ALK-acid (where Dnp is Dinitrophenyl maleimide) (10-mer) • L-Leucine 7-amido-4-methylcoumarin (L-AMC) • Purified ERAP1(37-941)-10His (ERAP1)
12.5 μL ERAP1 enzyme in 1×AB was combined with 250 nL test compound in DMSO. 12.5 μL of either 240 μM L-AMC in 1×AB or 100 μM 10-mer in 1×AB was added to the reaction and incubated at 23° C. for 1 h. For detection, plates were read at excitation 365 nm and emission 442 nm (L-AMC) or excitation 279 nm and emission 355 nm (10-mer). Compound IC50 was determined using a 4-parameter equation.

T1 sequence (Q9NZ08 37-941): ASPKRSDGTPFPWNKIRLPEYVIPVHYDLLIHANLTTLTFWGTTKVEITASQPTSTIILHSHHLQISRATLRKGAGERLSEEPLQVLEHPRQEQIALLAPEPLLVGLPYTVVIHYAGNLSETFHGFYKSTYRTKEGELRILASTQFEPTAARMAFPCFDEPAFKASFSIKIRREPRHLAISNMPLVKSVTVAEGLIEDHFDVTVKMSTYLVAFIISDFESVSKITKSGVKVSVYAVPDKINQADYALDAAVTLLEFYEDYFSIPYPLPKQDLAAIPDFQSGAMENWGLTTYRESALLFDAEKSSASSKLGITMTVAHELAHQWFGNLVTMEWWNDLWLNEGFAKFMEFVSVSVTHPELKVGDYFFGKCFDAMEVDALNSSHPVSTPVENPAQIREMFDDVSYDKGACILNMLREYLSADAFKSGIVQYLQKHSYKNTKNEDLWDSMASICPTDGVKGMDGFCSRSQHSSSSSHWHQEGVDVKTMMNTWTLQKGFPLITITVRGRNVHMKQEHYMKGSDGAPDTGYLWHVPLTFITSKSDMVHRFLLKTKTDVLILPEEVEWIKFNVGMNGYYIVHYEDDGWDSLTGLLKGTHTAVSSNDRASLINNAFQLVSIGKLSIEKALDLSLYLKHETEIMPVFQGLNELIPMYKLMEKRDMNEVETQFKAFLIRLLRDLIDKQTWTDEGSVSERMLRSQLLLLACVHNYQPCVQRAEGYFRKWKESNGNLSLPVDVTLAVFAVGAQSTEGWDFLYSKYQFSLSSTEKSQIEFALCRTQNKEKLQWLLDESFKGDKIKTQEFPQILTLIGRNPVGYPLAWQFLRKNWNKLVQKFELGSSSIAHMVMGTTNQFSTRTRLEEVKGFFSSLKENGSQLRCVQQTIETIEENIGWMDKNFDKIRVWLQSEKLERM

SMILES	pIC50
O=C(O)c1ccc2c(c1)S(=O)(=O)Nc1cc(C(F)(F)F)ccc1N1CCCCC1C/C=C/CO2 (racemic) [Example 1, (E)-2-(trifluoromethyl)-7,8,9,9a,10,13-hexahydro-6H, 20H-dibenzo[b,f]pyrido[1,2-h][1]oxa[4]thia[5,8]diazacyclotridecine-17-carboxylic acid 19,19-dioxide]	> 6.60
CS(=O)(=O)NC(=O)c1ccc2c(c1)S(=O)(=O)Nc1cc(C#N)c(Cl)cc1N1CCCCC1C/C=C/CO2 (single isomer, unassigned) [Example 62]	< 6.00
CS(=O)(=O)c1cc2c(cc1F)N1CCCCC1CCCOc1ccc(C(=O)O)cc1S(=O)(=O)N2 (racemic) [Example 51, 3-fluoro-2-(methylsulfonyl)-6,7,8,9,9a,10,11,12-octahydro-19H-dibenzo[b,f]pyrido[1,2-h][1]oxa[4]thia[5,8]diazacyclododecine-16-carboxylic acid 18,18-dioxide]	6.00 to 6.60
N#Cc1cc2c(cc1Cl)N1CCCCC1/C=C/COc1ccc(C(=O)O)cc1S(=O)(=O)N2 (single isomer, unassigned) [Example 47, (E)-3-chloro-2-cyano-6,7,8,9,9a,12-hexahydro-19H-dibenzo[b,f]pyrido[1,2-h][1]oxa[4]thia[5,8]diazacyclododecine-16-carboxylic acid 18,18-dioxide]	6.00 to 6.60
N#Cc1cc2c(cc1Cl)N1CCCC[C@@H]1COCCOc1ccc(C(=O)O)cc1S(=O)(=O)N2 (single isomer, unassigned) [Example 67]	> 6.60
N#Cc1cc2c(cc1Cl)N1CCCCC1C/C=C/COc1ccc(C(=O)O)cc1S(=O)(=O)N2 (single isomer, unassigned) [Example 45, (E)-3-chloro-2-cyano-7,8,9,9a,10,13-hexahydro-6H, 20H-dibenzo[b,f]pyrido[1,2-h][1]oxa[4]thia[5,8]diazacyclotridecine-17-carboxylic acid 19,19-dioxide]	> 6.60
CN1c2cc(S(C)(=O)=O)ccc2N2CCCCC2CCCOc2ccc(C(=O)O)cc2S1(=O)=O (racemic) [Example 34, 19-methyl-2-(methylsulfonyl)-6,7,8,9,9a,10,11,12-octahydro-19H-dibenzo[b,f]pyrido[1,2-h][1]oxa[4]thia[5,8]diazacyclododecine-16-carboxylic acid 18,18-dioxide]	> 6.60
N#Cc1cc2c(cc1Cl)N1CCCCC1/C=C/COc1ccc(C(=O)O)cc1S(=O)(=O)N2 (single isomer, unassigned) [Example 48, (E)-3-chloro-2-cyano-6,7,8,9,9a,12-hexahydro-19H-dibenzo[b,f]pyrido[1,2-h][1]oxa[4]thia[5,8]diazacyclododecine-16-carboxylic acid 18,18-dioxide]	> 6.60
CS(=O)(=O)c1ccc2c(c1)NS(=O)(=O)c1cc(C(=O)O)ccc1OCCCC1CCCCN21 (single isomer, unassigned) [Example 49, 2-(methylsulfonyl)-6,7,8,9,9a,10,11,12-octahydro-19H-dibenzo[b,f]pyrido[1,2-h][1]oxa[4]thia[5,8]diazacyclododecine-16-carboxylic acid 18,18-dioxide]	> 6.60
CS(=O)(=O)c1ccc2c(c1)NS(=O)(=O)c1cc(C(=O)O)ccc1OCCCCC1CCCCN21 (racemic) [Example 23, 2-(methylsulfonyl)-7,8,9,9a,10,11,12,13-octahydro-6H, 20H-dibenzo[b,f]pyrido[1,2-h][1]oxa[4]thia[5,8]diazacyclotridecine-17-carboxylic acid 19,19-dioxide]	6.00 to 6.60
N#Cc1cc2c(cc1Cl)N1CCCCC1CCCCOc1ccc(C(=O)O)cc1S(=O)(=O)N2 (single isomer, unassigned) [Example 26, 3-chloro-2-cyano-7,8,9,9a,10,11,12,13-octahydro-6H, 20H-dibenzo[b,f]pyrido[1,2-h][1]oxa[4]thia[5,8]diazacyclotridecine-17-carboxylic acid 19,19-dioxide]	> 6.60
CS(=O)(=O)c1cc2c(cc1F)N1CCCCC1COc1ccc(C(=O)O)cc1S(=O)(=O)N2 (single isomer, unassigned) [Example 39, 9-fluoro-8-(methylsulfonyl)-12,13,14,15,15a,16-hexahydro-6H-dibenzo[b,f]pyrido[1,2-h][1,4,5,8]oxathiadiazecine-3-carboxylic acid 5,5-dioxide]	> 6.60
N#Cc1cc2c(cc1F)N1CCCCC1COc1ccc(C(=O)O)cc1S(=O)(=O)N2 (single isomer, unassigned) [Example 37, 8-cyano-9-fluoro-12,13,14,15,15a,16-hexahydro-6H-dibenzo[b,f]pyrido[1,2-h][1,4,5,8]oxathiadiazecine-3-carboxylic acid 5,5-dioxide]	< 6.00
N#Cc1ccc2c(c1)NS(=O)(=O)c1cc(C(=O)O)ccc1OCCC1CCCCN21 (single isomer, unassigned) [Example 6, 2-cyano-7,8,9,9a,10,11-hexahydro-6H, 18H-dibenzo[b,f]pyrido[1,2-h][1]oxa[4]thia[5,8]diazacycloundecine-15-carboxylic acid 17,17-dioxide]	< 6.00
CS(=O)(=O)c1cc2c(cc1F)N1CCCCC1COc1ccc(C(=O)O)cc1S(=O)(=O)N2 (racemic) [Example 25, 9-fluoro-8-(methylsulfonyl)-12,13,14,15,15a,16-hexahydro-6H-dibenzo[b,f]pyrido[1,2-h][1,4,5,8]oxathiadiazecine-3-carboxylic acid 5,5-dioxide]	> 6.60
N#Cc1cc2c(cc1Cl)N1CCCC[C@H]1CCCCCc1ccc(C(=O)O)cc1S(=O)(=O)N2 [Example 72, (R)-3-chloro-2-cyano-6,7,8,9,9a,10,11,12,13,14-decahydro-20H-dibenzo[c,l]pyrido[1,2-e][1]thia[2,5]diazacyclotridecine-17-carboxylic acid 19,19-dioxide]	> 6.60
N#Cc1ccc2c(c1)NS(=O)(=O)c1cc(C(=O)O)ccc1OCCCCC1CCCCN21 (single isomer, unassigned) [Example 13, 2-cyano-7,8,9,9a,10,11,12,13-octahydro-6H,20H-dibenzo[b,f]pyrido[1,2-h][1]oxa[4]thia[5,8]diazacyclotridecine-17-carboxylic acid 19,19-dioxide]	> 6.60
N#Cc1ccc2c(c1)NS(=O)(=O)c1cc(C(=O)O)ccc1OCC1CCCCN21 (racemic) [Example 3, 8-cyano-12,13,14,15,15a,16-hexahydro-6H-dibenzo[b,f]pyrido[1,2 h][1,4,5,8]oxathiadiazecine-3-carboxylic acid 5,5-dioxide]	> 6.60
N#Cc1cc2c(cc1F)N1CCCCC1CCCCOc1ccc(C(=O)O)cc1S(=O)(=O)N2 (racemic) [Example 28, 2-cyano-3-fluoro-7,8,9,9a,10,11,12,13-octahydro-6H,20H-dibenzo[b,f]pyrido[1,2-h][1]oxa[4]thia[5,8]diazacyclotridecine-17-carboxylic acid 19,19-dioxide]	> 6.60
N#Cc1cc2c(cc1Cl)N1CCCCC1COCCOc1ccc(C(=O)O)cc1S(=O)(=O)N2 (racemic) [Example 65, 3-chloro-2-cyano-6,7,8,9,9a,10,12,13-octahydro-20H-dibenzo[e,i]pyrido[1,2-k][1,4]dioxa[7]thia[8,11]diazacyclotridecine-17-carboxylic acid 19,19-dioxide]	> 6.60
